Entries after “also recorded” stand apart in the source; their conditions may differ.
How the values were obtained:
Foxp3+CD25+ iTreg cells [1] = experiment: Mreg co-culture with naïve CD4+ T cells in lidded FACS tubes, iTreg analysis by flow cytometry; assay type: cell-based, human; conditions: tacrolimus 1 nM to 10 μM during co-culture; n=3 donors; FIG. 1
Procedure: (§1) A preparation of human Mregs (“Mreg B”) was prepared in 75 cm^2 flasks according to a modified protocol of Hutchinson. Peripheral blood mononuclear cells (PBMC) were obtained from a healthy donor for use as starting material for Mreg generation. The donor was screened for relevant disease markers, including infectious diseases, not more than 30 days prior to collection of PBMC. The donor was re-screened for the same disease markers on the day of leucocyte donation. PBMC were obtained by leukapheresis using the Spectra Optia® device. Human Mregs can also be generated from leukapheresates collected with alternative devices or from whole blood samples. PBMC from leukapheresis products were further purified by Ficoll-gradient centrifugation. CD14^+ monocytes were isolated from Ficoll-separated, washed PBMC by positive magnetic bead selection using research-grade CD14 microbeads (Miltenyi Biotec, GmbH) in accordance with the manufacturer's instructions. The preparation of isolated monocytes was quality-controlled for viability and purity of CD14^+ cells and contamination with CD3^+ T cells by flow cytometry. Isolated monocytes were resuspended in Mreg culture medium at a density of 7.5×10^5 viable monocytes/ml then plated in Cell+T75 flasks (Sarstedt) at 2×10^5 viable monocytes/cm^2 in a total volume of 20 ml medium. […]

Foxp3+CD25+ iTreg cells [2] = experiment: Mreg-induced iTreg assay: Mreg co-culture with allogeneic CD3+ T cells in 96 well plates; assay type: cell-based; conditions: recombinant human IFN-γ 0-100 ng/ml during co-culture; n=8 donors; p<0.0001; FIG. 6
Procedure: as §1

## C=CC[C@@H]1/C=C(\C)C[C@H](C)C[C@H](OC)[C@H]2O[C@@](O)(C(=O)C(=O)N3CCCC[C@H]3C(=O)O[C@H](/C(C)=C/[C@@H]3CC[C@@H](O)[C@H](OC)C3)[C@H](C)[C@@H](O)CC1=O)[C@H](C)C[C@@H]2OC [tacrolimus]
Foxp3+CD25+ iTreg cells [1]
  Mreg-mediated iTreg generation (Foxp3+CD25+ iTreg cells): inhibited the formation of Foxp3+CD25+ iTreg cells in a dose-dependent manner; also recorded: potently suppressed iTreg generation in a dose-dependent manner

B1: IFN-γ: recombinant human interferon gamma added to Mreg-T cell co-cultures (protein, UniProt P01579 24-161, looked up)
Interferon gamma: QDPYVKEAENLKKYFNAGHSDVADNGTLFLGILKNWKEESDRKIMQSQIVSFYFKLFKNFKDDQSIQKSVETIKEDMNVKFFNSNKKKRDDFEKLTNYSVTDLNVQRKAIHELIQVMAELSPAAKTGKRKRSQMLFRG
Foxp3+CD25+ iTreg cells [2]
  iTreg generation versus IFN-γ concentration in the co-culture phase (linear regression): significant dose-dependent relationship

Reference: US20200292529A1, “NEW DRUG SCREENING ASSAY USING REGULATORY MACROPHAGES” (Universität Regensburg, priority 2017, published 2020)
